pEC50: −log10 of the molar value. Structures can show the parent of a compound that is named as a salt. One block for each compound: values may come before it.
How the values were obtained:
human cardiac OOC [1] = assay: cells; settings: read-out: EC50 of increase in beat frequency
Excerpt: (§2) The pillars subjected the hydrogel to mechanical loading designed to mimic that in the native heart. The hydrogel compaction caused passive tension in the tissues as they're stretched and aligned between the pillars. Synchronous contractions forced the tissues to work against the pillars. […] Cardiac model development: Cardiac tissues were formed by cell encapsulation in fibrin hydrogel. Human iPS cell-derived cardiomyocytes at day 16 of differentiation were combined with normal human dermal fibroblasts (NHDF; Lonza) at a ratio of 75% hiPSC-CMs and 25% NHDF, for a total of 1 million cells per tissue. The hydrogel was formed by mixing 33 mg/mL of fibrinogen from human plasma (Sigma-Aldrich) with 25 U/mL of thrombin from human plasma (Sigma-Aldrich), on a 84:16 ratio. The hydrogel mixed with the cells was dispensed into each well of the tissues formation reservoir and allowed to polymerize at 37° C. for 15 min before adding RPMI Medium 1640 supplemented with B-27™ containing 0.2 mg/ml aprotinin (Sigma-Aldrich). Subsequently, medium was changed every other day supplemented with 0.2 mg/ml aprotinin for the first 7 days. After 7 days, tissues were used in experiments. […] Contractility videos: Tissue contractility was measured by tracking the change in tissue area as a function of time. […] Absolute differences in cell area from the baseline frame were then calculated to create a time course of cell area dynamics as a function of time. The resulting time courses were analysed using a native MATLAB (MATHWorks) automated peak finding algorithm to determine locations of maximum cell contraction indicated by the locations of local maxima in the time courses. Beat period lengths were determined from the length of time between the pairs of local maxima. Beat frequencies were determined by inverting beat periods; relaxation times were measured from the length of time required for the tissue to relax from the peak contraction amplitude of the local maxima to the calculated relaxation amplitude.

all tissue types = assay: Doxorubicin study in integrated multi-tissue platform: common toxicity readouts; format: cell-based, human; settings: 72 hours after 30 μM dose
cardiac compartment = assay: Doxorubicin study: cardiac compartment function; format: cell-based, human; settings: 30 μM, 72 hours
Liver tissues = assay: Doxorubicin study: liver functionality; format: cell-based, human; settings: 30 μM, 72 hours, only in the integrated experimental groups
Experimental: (§1) Common tissue responses were measured for each tissue individually, 72 hours after their assembly into the integrated platform and exposure to 30 μM concentration of doxorubicin introduced into the circulatory perfusion. FIG. 61 illustrates the Doxorubicin (Dox) drug study design including four conditions tests (integrated control, integrated Dox, isolated control, isolated Dox).

Bone tissues = assay: Doxorubicin study: bone remodeling and histology; settings: 30 μM, 72 hours
Experimental: as §1

skin tissues = assay: Doxorubicin study: skin barrier transport and TEER; format: cell-based, human; settings: 30 μM, 72 hours, isolated and integrated comparable
Experimental: as §1

human cardiac OOC [2] = test system: human cardiac OOC
Excerpt: as §2

pEC50 (human cardiac OOC [1]): 7.52
SMILES: CC(C)NCC(O)c1ccc(O)c(O)c1 (stereo not drawn) [isoproterenol, isoproterenol hydrochloride]

release of troponin (cardiac compartment): increased release of troponin
albumin production (Liver tissues): decreased albumin
urea production (Liver tissues): unaffected urea production
TRAP activity (bone remodeling) (Bone tissues): stable TRAP responses
electrical resistance (TEER) of skin (skin tissues): electrical resistance decreased
SMILES: COc1cccc2c1C(=O)c1c(O)c3c(c(O)c1C2=O)C[C@@](O)(C(=O)CO)C[C@@H]3O[C@H]1C[C@H](N)[C@H](O)[C@H](C)O1 [doxorubicin, doxorubicin hydrochloride]
cell viability (all tissue types): significant decreases
glucose consumption (all tissue types): significant decreases
mitochondrial activity (all tissue types): significant decreases
contractile and conductive behavior (cardiac compartment): decreased contractile and conductive behavior

SMILES: Cn1c(=O)c2c(ncn2C)n(C)c1=O [caffeine]
beat frequency (human cardiac OOC [2]; caffeine 50 mM): increase in beat frequency

SMILES: CCCCc1oc2ccccc2c1C(=O)c1cc(I)c(OCCN(CC)CC)c(I)c1 [amiodarone, amiodarone hydrochloride]
beating frequency (human cardiac OOC [2]; amiodarone 2.42 μM (FIG. 50 legend prints 2.42 M), over 48 hours): beating frequency decreased
